{
  "source": "paper PMC7159882",
  "about": "“Polyunsaturated fatty acid analogues differentially affect cardiac NaV, CaV, and KV channels through unique mechanisms” (eLife, 2020)",
  "tested_on": "human induced pluripotent stem cell-derived cardiomyocytes (hiPSC-CM)",
  "assay": "Optical recordings of calcium transients in hiPSC-CM monolayers",
  "format": "cell-based",
  "procedure": "Human induced pluripotent stem cell-derived cardiomyocytes (hiPSC-CM) were purchased from AXOL Bioscience. The hiPSC-CM were thawed and plated following the manufacturer’s protocol. Briefly, cells were plated on Matrigel (Corning) pre-coated glass coverslips cultivated in 96-multiwell plates (Falcon). Matrigel was diluted in sterile DMEM/F12 medium (Gibco) (1:130) and incubated for 2 hr at 37°C before plating the cells. hiPSC-CM were cultured at 37°C and 5% CO2. Cultured hiPSC-CM were fed every other day. […]\nCaT fluorescence recordings from cell monolayers were recorded using a Leica DM LFS upright microscope. […] Fluorescence signals were passed through the emission filter, collected by a photodiode, and amplified with an Axopatch 200B patch clamp amplifier (Axon Instruments). Calcium fluorescence signals were low-pass Bessell-filtered (Frequency Devices) at 100 Hz, digitized at 1 kHz, and recorded using Clampex 9.2 and analyzed using Clampfit 9.2. […] Since hiPSC-CM were spontaneously beating and at slightly different frequencies between monolayers, the frequency of the action potentials was calculated as the inverse of the time between CaTs. The action potential duration (APD) was measured in the absence and the presence of DHA-Glycine. The APD90 (or the time required to achieve the 90% of repolarization of the CaT) was measured in all the experiments to test the effects of DHA-glycine. […]",
  "data": [
    {"smiles": "CC/C=C\\C/C=C\\C/C=C\\C/C=C\\C/C=C\\C/C=C\\CCC(=O)NCC(=O)O", "note": "[DHA-glycine, docosahexaenoyl glycine]", "values": [
      {"measurement": "CaT APD90c", "setting": "30 µM, corrected by modified Fridericia's formula, control 472 ± 27 ms, n = 3", "result": "317 ± 9", "unit": "ms"},
      {"measurement": "effect on hiPSC-derived cardiomyocytes at lower doses", "setting": "doses lower than 30 μM", "result": "did not get significant effects at low doses"}
    ]}
  ]
}
